# Reference: patent publication US10631557B2, “Preservative system for acidic beverages based on sequestrants” (PepsiCo, Inc., priority 2008, dated 2020)
# Where “and” joins values, the source holds several entries; their conditions need not be identical. Equal entries are not always repeated. Where two headings read alike, the source gives them in different places.
# Key:
# [1] = system: all 7 bio-indicator strains; test: Inoculated 2% juice beverage pH 3.4, sequestrant and weak acid combinations (Examples 27-29); assay type: cell-based; settings: for SHMP concentration that prohibits outgrowth of all 7 bio-indicator strains: potassium sorbate 0.015%
# From the text: (§1) Copper, less than 1 microgram per liter Zinc less than 1 microgram per liter, Nickel, less than 1 microgram per liter and Iron less than 0.1 microgram per liter. The water hardness was/is adjusted to 50 ppm through addition of mixture of CaCl2 and MgCl2.
# (§2) The spoilage organisms for the following examples are identified as follows: Y3, Zygosaccharomyces bailii isolate of Pepsi (Strain 906); C-7UP, Brettanomyces isolate of Pepsi, (Cherry 7-UP); Spore, ascospore preparation of Saccharomyces cerevisiae isolate of Pepsi (strain “spore”). Y22, ATCC 60484 Zygosacharomyces bailii; M1, Paecilomyces isolate of Pepsi; Y107 ATCC 52407; M2 ATCC 36614 Byssochlamys nieva. An inoculum of approximately 40 per milliliter was/is employed for each organism. All test samples were/are incubated 16 weeks at 25 C.
# (§3) A preparation of beverage was divided into three aliquots; one was supplemented with EDTA (30 ppm) and the remaining two aliquots were supplemented with either 15 or 30 ppm EDDS.
# (§4) The beverage aliquots were identical with the exception of the presence or concentration of either EDTA or EDDS. Each aliquot was divided further into smaller volume test samples wherein the concentration of potassium sorbate varies from 0-1500 ppm (0-0.15%). The concentration of EDTA or EDDS is held constant. Under these circumstances, it is possible to establish whether either EDTA or EDDS permitted the use of lowered concentrations of potassium sorbate to preserve a product of pH 3.4. […] The beverage is formulated to contain 50 ppm hardness.
# The biodegradable sequestrant ethylene diamine disuccinic acid was admixed with a sodium hexametaphosphate and cinnamic acid in the beverage as shown in the formula for the beverage.
# A 2% fruit juice based non-carbonated beverage of pH 3.4 and about 12 Brix was formed by combining the following ingredients.
# The biodegradable sequestrant ethylene diamine disuccinic acid was admixed with a bis-phosphonate (Etidronate) wherein the two sequestrants combined to limit the availability of divalent cations to spoilage microorganisms. The beverage was also supplemented with potassium sorbate.
# (§5) A 2% fruit juice based non-carbonated beverage of pH 3.4 and about 12Brix was formed by combining the following ingredients.
# [2] = Stability against heat or acid induced hydrolysis in beverage; assay type: physicochemical; settings: thermal processing or ambient aqueous solution
# Procedure: The maximum temperature of product in container of 71.3° C. permits the use of standard PET containers as opposed to the environmentally less-sound heat-set PET containers typically employed in hot fill operations. […] A formulation containing SHMP in place of bis-phosphonate will fail because of the degradation of SHMP that occurs during thermal processing.
# Furthermore, the problem of pH drift that accompanies the use of SHMP is avoided. Substituting EDDS for EDTA avoids the concerns associated with employing a substance that is not environmentally sound.
# Bis-phosphonates, as a substitute for SHMP, allows for the use of thermal processing of beverage in that all bis-phosphonates are stable against heat or acid induced hydrolysis. Such is not the case for polyphosphates such as SHMP. Furthermore, the problem of pH drift that accompanies the use of SHMP at ambient temperatures is avoided. Substituting EDDS for EDTA avoids the concerns associated with employing a substance that is not environmentally sound.
# Mold (M1 & M6) = settings: pH 3.4
# From the text: as §1, §2
# (§6) A preparation of beverage was divided into multiple small volume aliquots, each aliquot containing a different concentration of potassium sorbate. The range of concentration of potassium sorbate is 0-0.094% (0-940 ppm). Preparations (aliquots) of beverage containing potassium sorbate at each test concentration (48 different values) are inoculated separately with one of 7 different spoilage organisms (bio-indicator) for a total of 336 test samples.
# as §3, §5, §4
# [3] = acid pH
# From the text: Further, at least one regulatory agency in Asia has established an upper limit for the use of potassium sorbate at 50 ppm. If other regulatory agencies follow suite, it will be necessary to broadly apply a complement to potassium sorbate. […] Beverages are generally produced from concentrates and a […] beverage concentrate should contain 1200-1500 ppm potassium sorbate to yield a finished beverage concentration of 240-300 ppm. This often proves problematic during the batching of beverage and it is clear that a final beverage formulation containing 50-150 ppm potassium sorbate would be favored.
# strain Y3 [4] = settings: potassium sorbate alone
# From the text: as §1, §2, §6
# (§7) The 2% fruit juice based non-carbonated beverage of pH 3.4 and about 12 Brix was generated by combining the following ingredients.
# [5] = system: bio-indicators in the absence of Y3; settings: potassium sorbate alone, pH 3.4, 16 weeks at 25 C, FIG. 3A
# From the text: as §1, §2, §6, §7
# Saccharomyces cerevisae = test: Growth in beverage acidified to pH 3.6 with malic acid (Example 33); assay type: cell-based
# Strain Y3 [6] = test: Yeast strains spotted on agar-solidified beverage plates containing a weak organic acid (Example 25); assay type: cell-based, Zygossacharomyces bailii; settings: sodium benzoate 700 or 1000 ppm, potassium sorbate 500 or 800 ppm, cinnamic acid 25-200 ppm
# Procedure: A 2 fold concentrate of beverage was prepared and was then mixed with an equal volume of 15% molten agar. Before solidification of the agar, the single strength beverage formulation containing 7.5% molten agar, was then divided into aliquots and to each separate aliquot was added, with the exception of one, sodium benzoate, potassium sorbate or cinnamic acid. The aliquot not receiving either potassium sorbate or cinnamic acid served as a positive control. While the agar was still molten, the agar-beverage aliquots (containing a single weak acid at a specified concentration) were poured into separate Petri plates. In Two agar plates. sodium benzoate was present at either 700 ppm or 1000 ppm) Two agar plates contained potassium sorbate (500 or 800 ppm). Six agar plates contained cinnamic acid ranging in concentrations of 25-200 ppm. Agar solidification essentially provides single strength beverage formulation in a semi-solid state.
# The 2 fold concentrate of single strength beverage and the agar supplemented single strength beverage is prepared as follows:
# After solidification of juice-agar mixture, various yeast strains (FIG. 2A) were spotted to the gel-surface of each type of mixture employing an identical pattern in each test (FIG. 2B) such that it was possible to identify the outgrowth of specific individual strains. […]
# [7] = 25 C; cited from earlier work
structure (smiles),measurement,setting,value
"CC(O)(P(=O)(O)O)P(=O)(O)O [Etridonate, (1-hydroxyethylidene)bis-phosphonate]",Etridonate concentration that prevents outgrowth of all seven spoilage organisms,"[1]; with 30 ppm EDDS (so in the source) and 150 ppm potassium sorbate, pH 3.4, FIG. 6D",250 ppm
same,Etridonate concentration that prohibits outgrowth of all seven bio-indicator strains,"[1]; with 30 ppm EDDS and 150 ppm potassium sorbate, pH 3.4, FIG. 6C",< 425 ppm and < 450 ppm
"O=P1([O-])OP(=O)([O-])OP(=O)([O-])OP(=O)([O-])OP(=O)([O-])OP(=O)([O-])O1.[Na+].[Na+].[Na+].[Na+].[Na+].[Na+] [SHMP, sodium hexametaphosphate]",SHMP concentration that prohibits outgrowth of all 7 bio-indicator strains,"[1]; with 30 ppm EDDS, pH 3.4, FIG. 6A",280 ppm
same,SHMP concentration that prohibits outgrowth of all 7 bio-indicator strains,"[1]; with 30 ppm EDTA, pH 3.4, FIG. 6B",250 ppm
same,stability against heat or acid induced hydrolysis,[2],degradation
C/C=C/C=C/C(=O)[O-].[K+] [potassium sorbate],concentration of potassium sorbate required to inhibit mold,Mold (M1 & M6); combined with EDDS (30 ppm),140-160 ppm
same,concentration of potassium sorbate required to inhibit mold,Mold (M1 & M6); combined with EDTA (30 ppm),140-160 ppm
same,concentration of potassium sorbate required to inhibit mold,Mold (M1 & M6); potassium sorbate employed alone,180-200 ppm
same,rate of dissolution,[3],measurably low
same,solubility,[3],not particularly soluble
same,concentration of potassium sorbate required to inhibit Y3 or similar strains,"strain Y3 [4]; pH 3.4, 16 weeks at 25 C, FIG. 3A",550-600 ppm
same,range of potassium sorbate concentrations with both growth and growth-free samples of Y3,"strain Y3 [4]; pH 3.4, FIG. 3A",460-660 ppm
same,amount of potassium sorbate required to preserve product in the absence of Y3,[5],220-250 ppm
"O=C([O-])C=Cc1ccccc1.[K+] [K+cinnamate, Potassium Cinnamate]",K+cinnamate concentration that prohibits outgrowth of all 7 bio-indicator strains,"[1]; with 30 ppm EDDS and 750 ppm SHMP, pH 3.4, FIG. 5B",no more than 50 ppm
same,K+cinnamate concentration that prohibits outgrowth of all 7 bio-indicator strains,"[1]; with 30 ppm EDTA and 750 ppm SHMP, pH 3.4, FIG. 5A",75 ppm
"NCCCC(O)(P(=O)(O)O)P(=O)(O)O [Alendronate, alendronate]",effect on growth rate of Saccharomyces cerevisae,"Saccharomyces cerevisae; 0.3% concentration, same beverage formulation pH 3.6",retards the growth rate
"O=C(O)C=Cc1ccccc1 [Cinnamic acid, cinnamic acid]",tolerance of strain Y3 to organic acid preservative (outgrowth on plate),Strain Y3 [6],among the most tolerant strains
"O=C(O)CN(CCN(CC(=O)O)CC(=O)O)CC(=O)O [EDTA, ethylenediamine tetraacetic acid]",log K for sodium,[7],1.7
"O=C(O)CC(NCCNC(CC(=O)O)C(=O)O)C(=O)O (centres unmarked) [EDDS, ethylenediamine-N,N′-disuccinic acid]",preservative performance compared with EDTA when combined with a single weak acid preservative,"[1]; 15 or 30 ppm EDDS vs 30 ppm EDTA, potassium sorbate varied, FIGS. 4A-4C",equivalent to EDTA
"CCCCCN(C)CCC(O)(P(=O)(O)O)P(=O)(O)O [Ibandronate, ibandronate]",effect on growth of Saccharomyces cerevisae,"Saccharomyces cerevisae; about 300 ppm, beverage pH 3.6 with malic acid",impair the growth
